Laboratory results taken from ChEMBL document CHEMBL5390225, “Discovery and structural optimization of a new series of N-acyl-2-aminobenzothiazole as inhibitors of Zika virus” (Bioorg Med Chem, 2023).

Experiments:
Zika virus [1] = assay: Antiviral activity against Zika virus PE243 infected in African green monkey Vero E6 cells assessed as inhibition of viral replication at 10 uM incubated for 72 hrs by immunofluorescence analysis; format: functional; details: PE243, Vero C1008
Zika virus [2] = assay: Antiviral activity against Zika virus PE243 infected in African green monkey Vero E6 cells assessed as inhibition of viral replication at 2 uM incubated for 72 hrs by immunofluorescence analysis; format: functional; details: PE243, Vero C1008
[3] = Cytotoxicity against African green monkey Vero E6 cells assessed as cell viability at 10 uM measured after 72 hrs by MTT assay relative to control; format: toxicity, cell-based, Vero C1008; details: chlorocebus sabaeus, read-out: Activity
[4] = Cytotoxicity against African green monkey Vero E6 cells assessed as cell viability at 2 uM measured after 72 hrs by MTT assay relative to control; format: toxicity, cell-based, Vero C1008; details: chlorocebus sabaeus, read-out: Activity
Zika virus [5] = assay: Antiviral activity against Zika virus PE243 infected in African green monkey Vero E6 cells assessed as inhibition of viral replication incubated for 72 hrs by immunofluorescence analysis; format: functional, organism-based; details: PE243, Vero C1008, 72 h
[6] = Cytotoxicity against African green monkey Vero E6 cells assessed as reduction in cell viability measured after 72 hrs by MTT assay; format: toxicity, cell-based, Vero C1008; details: chlorocebus sabaeus
[7] = Selectivity index, ratio of CC50 for cytotoxicity against African green monkey Vero E6 cells to EC50 for antiviral activity against Zika virus PE243 infected in African green monkey Vero E6 cells; format: toxicity, cell-based, Vero C1008; details: read-out: Ratio CC50/EC50
Zika virus [8] = assay: Inhibition of Zika virus BeH823339 NS2B protease (49 to 95 residues) R96A mutant/NS3 protease (1 to 170 residues) R29G/ C80S/C143S mutant expressed in Escherichia coli BL21 (DE3) cells using Bz-Nle-Lys-Lys-Arg-AMC as a fluorogenic substrate at 100 uM by fluorescence-based analysis relative to control
Zika virus [9] = assay: Inhibition of Zika virus BeH823339 NS2B protease (49 to 95 residues) R96A mutant/NS3 protease (1 to 170 residues) R29G/ C80S/C143S mutant expressed in Escherichia coli BL21 (DE3) cells using Bz-Nle-Lys-Lys-Arg-AMC as a fluorogenic substrate at 100 uM preincubated with enzyme for 10 mins by fluorescence-based analysis relative to control
Zika virus [10] = assay: Antiviral activity against Zika virus infected in golden hamster BHK21-RepZIKV_IRES-Neo cells assessed as inhibition of viral replication by measuring reduction in renilla luciferase expression at 10 uM measured after 72 hrs by luciferase reporter gene assay relative to control; format: functional, Mesocricetus auratus; details: BHK-21
BHK-21 = assay: Cytotoxicity against golden hamster BHK21-RepZIKV_IRES-Neo cells assessed as reduction in cell viability measured after 72 hrs by MTT assay; format: toxicity, cell-based, Mesocricetus auratus; details: bhk-21, 72 h
[11] = Inhibition of Zika virus BeH823339 NS2B protease (49 to 95 residues) R96A mutant/NS3 protease (1 to 170 residues) R29G/ C80S/C143S mutant expressed in Escherichia coli BL21 (DE3) cells using Bz-Nle-Lys-Lys-Arg-AMC as a fluorogenic substrate preincubated with enzyme for 10 mins by fluorescence-based analysis
Zika virus [12] = assay: Inhibition of Zika virus BeH823339 NS2B protease (49 to 95 residues) R96A mutant/NS3 protease (1 to 170 residues) R29G/ C80S/C143S mutant expressed in Escherichia coli BL21 (DE3) cells using Bz-Nle-Lys-Lys-Arg-AMC as a fluorogenic substrate at 100 uM preincubated with enzyme for 10 mins in presence of 0.001% TritonX-100 by fluorescence-based analysis
Zika virus [13] = assay: Inhibition of Zika virus BeH823339 NS2B protease (49 to 95 residues) R96A mutant/NS3 protease (1 to 170 residues) R29G/ C80S/C143S mutant expressed in Escherichia coli BL21 (DE3) cells using Bz-Nle-Lys-Lys-Arg-AMC as a fluorogenic substrate at 50 uM preincubated with 2 nM enzyme for 10 mins by fluorescence-based analysis relative to control
Zika virus [14] = assay: Inhibition of Zika virus BeH823339 NS2B protease (49 to 95 residues) R96A mutant/NS3 protease (1 to 170 residues) R29G/ C80S/C143S mutant expressed in Escherichia coli BL21 (DE3) cells using Bz-Nle-Lys-Lys-Arg-AMC as a fluorogenic substrate at 50 uM preincubated with enzyme for 10 mins in presence of BSA by fluorescence-based analysis relative to control
Zika virus [15] = assay: Inhibition of Zika virus BeH823339 NS2B protease (49 to 95 residues) R96A mutant/NS3 protease (1 to 170 residues) R29G/ C80S/C143S mutant expressed in Escherichia coli BL21 (DE3) cells using Bz-Nle-Lys-Lys-Arg-AMC as a fluorogenic substrate at 50 uM preincubated with 0.2 nM enzyme for 10 mins by fluorescence-based analysis relative to control
[16] = target: Cruzipain (Trypanosoma cruzi) (UniProt P25779); assay: Inhibition of recombinant Trypanosoma cruzi Cruzain using Z-Phe-Arg-AMC as fluorogenic substrate at 50 uM preincubated with enzyme for 10 mins by fluorescence-based analysis relative to control
Cruzipain (Trypanosoma cruzi), sequence (P25779 123-467 limits assumed): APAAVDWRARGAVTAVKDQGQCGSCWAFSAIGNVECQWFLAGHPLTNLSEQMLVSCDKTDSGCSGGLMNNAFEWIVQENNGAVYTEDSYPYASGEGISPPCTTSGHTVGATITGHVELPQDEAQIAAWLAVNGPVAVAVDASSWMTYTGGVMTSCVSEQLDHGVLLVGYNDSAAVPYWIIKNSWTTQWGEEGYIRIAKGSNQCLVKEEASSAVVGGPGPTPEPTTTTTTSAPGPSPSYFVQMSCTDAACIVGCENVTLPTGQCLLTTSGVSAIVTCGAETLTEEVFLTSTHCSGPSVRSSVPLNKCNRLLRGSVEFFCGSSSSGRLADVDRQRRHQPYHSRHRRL

Zika virus [17] = assay: Inhibition of Zika virus BeH823339 NS2B protease (49 to 95 residues) R96A mutant/NS3 protease (1 to 170 residues) R29G/ C80S/C143S mutant expressed in Escherichia coli BL21 (DE3) cells using Bz-Nle-Lys-Lys-Arg-AMC as a fluorogenic substrate at 10 uM preincubated with enzyme for 10 mins in presence of BSA by fluorescence-based analysis relative to control
[18] = target: Cruzipain (Trypanosoma cruzi) (UniProt P25779); assay: Inhibition of recombinant Trypanosoma cruzi Cruzain using Z-Phe-Arg-AMC as fluorogenic substrate at 12.5 uM preincubated with enzyme for 10 mins by fluorescence-based analysis relative to control
Zika virus [19] = assay: Inhibition of Zika virus BeH823339 NS2B protease (49 to 95 residues) R96A mutant/NS3 protease (1 to 170 residues) R29G/ C80S/C143S mutant expressed in Escherichia coli BL21 (DE3) cells using Bz-Nle-Lys-Lys-Arg-AMC as a fluorogenic substrate at 12.5 uM preincubated with 0.2 nM enzyme for 10 mins by fluorescence-based analysis relative to control
Zika virus [20] = assay: Inhibition of Zika virus BeH823339 NS2B protease (49 to 95 residues) R96A mutant/NS3 protease (1 to 170 residues) R29G/ C80S/C143S mutant expressed in Escherichia coli BL21 (DE3) cells using Bz-Nle-Lys-Lys-Arg-AMC as a fluorogenic substrate at 12.5 uM preincubated with 2 nM enzyme for 10 mins by fluorescence-based analysis relative to control
Zika virus [21] = assay: Inhibition of Zika virus BeH823339 NS2B protease (49 to 95 residues) R96A mutant/NS3 protease (1 to 170 residues) R29G/ C80S/C143S mutant expressed in Escherichia coli BL21 (DE3) cells using Bz-Nle-Lys-Lys-Arg-AMC as a fluorogenic substrate at 25 uM preincubated with enzyme for 10 mins in presence of BSA by fluorescence-based analysis relative to control
Zika virus [22] = assay: Inhibition of Zika virus BeH823339 NS2B protease (49 to 95 residues) R96A mutant/NS3 protease (1 to 170 residues) R29G/ C80S/C143S mutant expressed in Escherichia coli BL21 (DE3) cells using Bz-Nle-Lys-Lys-Arg-AMC as a fluorogenic substrate at 25 uM preincubated with 0.2 nM enzyme for 10 mins by fluorescence-based analysis relative to control
Zika virus [23] = assay: Inhibition of Zika virus BeH823339 NS2B protease (49 to 95 residues) R96A mutant/NS3 protease (1 to 170 residues) R29G/ C80S/C143S mutant expressed in Escherichia coli BL21 (DE3) cells using Bz-Nle-Lys-Lys-Arg-AMC as a fluorogenic substrate at 25 uM preincubated with 2 nM enzyme for 10 mins by fluorescence-based analysis relative to control
[24] = target: Cruzipain (Trypanosoma cruzi) (UniProt P25779); assay: Inhibition of recombinant Trypanosoma cruzi Cruzain using Z-Phe-Arg-AMC as fluorogenic substrate at 25 uM preincubated with enzyme for 10 mins by fluorescence-based analysis relative to control

O=C(Nc1nc2ccccc2s1)c1ccc(NS(=O)(=O)c2ccc([N+](=O)[O-])cc2)cc1
inhibition at 10 µM (Zika virus [1]): 72.1%
inhibition at 2 µM (Zika virus [2]): 0%
viability at 72 h, 10 µM [3]: 99.7%
viability at 72 h, 2 µM [4]: 101%
EC50 (Zika virus [5]): 7.5 µM
CC50 at 72 h [6]: 30.2 µM
selectivity ratio [7]: 4
inhibition (Zika virus [8]): 30%
inhibition (Zika virus [9]): 39%
inhibition at 10 µM (Zika virus [10]): 23.4%
Activity (BHK-21): Non-Toxic

COc1ccc(S(=O)(=O)Nc2ccccc2C(=O)Nc2nc3ccccc3s2)cc1
inhibition at 10 µM (Zika virus [1]): 1%
inhibition at 2 µM (Zika virus [2]): 5.4%
viability at 72 h, 10 µM [3]: 104%
viability at 72 h, 2 µM [4]: 98.5%
inhibition (Zika virus [8]): 92%
inhibition (Zika virus [9]): 100%
IC50 [11]: 24 µM
inhibition (Zika virus [12]): 53%
inhibition (Zika virus [13]): 25%
inhibition (Zika virus [14]): 20%
inhibition (Zika virus [15]): 39%
inhibition [16]: 96%

COc1ccc(S(=O)(=O)Nc2ccccc2C(=O)Nc2nc3ccccc3[nH]2)cc1
inhibition at 10 µM (Zika virus [1]): 98.8%
inhibition at 2 µM (Zika virus [2]): 97.6%
viability at 72 h, 10 µM [3]: 19.9%
viability at 72 h, 2 µM [4]: 33.5%
EC50 (Zika virus [5]): 33.9 µM
CC50 at 72 h [6]: 56.5 µM
selectivity ratio [7]: 1.7
inhibition (Zika virus [8]): 62%
inhibition (Zika virus [9]): 100%
IC50 [11]: 8 µM
inhibition (Zika virus [12]): 42%
inhibition (Zika virus [17]): 8%
inhibition [18]: 58%
inhibition at 10 µM (Zika virus [10]): 46.4%
Activity (BHK-21): Non-Toxic
inhibition (Zika virus [19]): 62%
inhibition (Zika virus [20]): 16%

COc1cc(Cl)ccc1S(=O)(=O)Nc1ccc(C(=O)Nc2nc3ccccc3s2)cc1
inhibition at 10 µM (Zika virus [1]): 100%
inhibition at 2 µM (Zika virus [2]): 64.5%
viability at 72 h, 10 µM [3]: 17.5%
viability at 72 h, 2 µM [4]: 44%
EC50 (Zika virus [5]): 10.7 µM
CC50 at 72 h [6]: 23.9 µM
selectivity ratio [7]: 2.2
inhibition (Zika virus [8]): 3%
inhibition (Zika virus [9]): 5%
inhibition at 10 µM (Zika virus [10]): 3.4%
Activity (BHK-21): Non-Toxic

COc1ccc(S(=O)(=O)Nc2cccc(C(=O)Nc3nc4ccccc4s3)c2)cc1
inhibition at 10 µM (Zika virus [1]): 87.5%
inhibition at 2 µM (Zika virus [2]): 72.9%
viability at 72 h, 10 µM [3]: 17.7%
viability at 72 h, 2 µM [4]: 79.3%
EC50 (Zika virus [5]): 5.1 µM
CC50 at 72 h [6]: 128 µM
selectivity ratio [7]: 25.1
inhibition (Zika virus [8]): 2%
inhibition (Zika virus [9]): 11%
inhibition at 10 µM (Zika virus [10]): 40.3%
Activity (BHK-21): Non-Toxic

COc1ccc(S(=O)(=O)Nc2ccccc2C(=O)Nc2nccs2)cc1
inhibition at 10 µM (Zika virus [1]): 100%
inhibition at 2 µM (Zika virus [2]): 68.6%
viability at 72 h, 10 µM [3]: 34.8%
viability at 72 h, 2 µM [4]: 36.2%
EC50 (Zika virus [5]): 5 µM
CC50 at 72 h [6]: 38.7 µM
selectivity ratio [7]: 7.7
inhibition (Zika virus [8]): 62%
inhibition (Zika virus [9]): 100%
IC50 [11]: 26 µM
inhibition (Zika virus [12]): 24%
inhibition (Zika virus [21]): 5%
inhibition at 10 µM (Zika virus [10]): 75.5%
Activity (BHK-21): Non-Toxic
inhibition (Zika virus [22]): 43%
inhibition (Zika virus [23]): 20%
inhibition [24]: 20%

COc1ccc(OC)c(S(=O)(=O)NCC(=O)Nc2nc3ccccc3s2)c1
inhibition at 10 µM (Zika virus [1]): 7.9%
inhibition at 2 µM (Zika virus [2]): 8.3%
viability at 72 h, 10 µM [3]: 102%
viability at 72 h, 2 µM [4]: 112%
inhibition (Zika virus [8]): 51%
inhibition (Zika virus [9]): 93%
IC50 [11]: 24 µM
inhibition (Zika virus [12]): 12%
inhibition (Zika virus [21]): 11%
inhibition (Zika virus [22]): 28%
inhibition (Zika virus [23]): 12%
inhibition [24]: 3%
